ChEMBL document CHEMBL1138674, “Validation of automated docking programs for docking and database screening against RNA drug targets” (J Med Chem, 2004)

Test: Dissociation constant of the compound
Assay type: physicochemical

| Compound | Kd |
| --- | --- |
| Cn1c(=O)c2[nH]cnc2n(C)c1=O [THEOPHYLLINE] | 0.4 µM |
| NC[C@@H]1O[C@H](O[C@H]2[C@@H](O)[C@H](O[C@@H]3[C@@H](O)[C@H](N)C[C@H](N)[C@H]3O[C@H]3O[C@H](CO)[C@@H](O)[C@H](O)[C@H]3N)O[C@@H]2CO)[C@H](N)[C@@H](O)[C@@H]1O [PAROMOMYCIN] | 0.2 µM |
| Nc1ncnc2c1ncn2[C@@H]1O[C@H](COP(=O)(O)O)[C@@H](O)[C@H]1O [ADENOSINE PHOSPHATE] | 2.7 µM |
| NC[C@@H]1O[C@H](O[C@H]2[C@@H](O)[C@H](O[C@@H]3[C@@H](O)[C@H](N)C[C@H](N)[C@H]3O[C@H]3O[C@H](CN)[C@@H](O)[C@H](O)[C@H]3N)O[C@@H]2CO)[C@H](N)[C@@H](O)[C@@H]1O (stereo in doubt; form 1) [FRAMYCETIN] | 1 µM |
| NC(=O)NCCC[C@H](N)C(=O)O [L-CITRULLINE] | 68 µM |
| CC(=O)c1ccc2c(c1)N(CCCN(C)C)c1ccccc1S2 [ACEPROMAZINE] | 0.1 µM |
| O=C(O)CCCC[C@@H]1SC[C@@H]2NC(=O)N[C@@H]21 [BIOTIN] | 6 µM |
| NC[C@H]1O[C@H](O[C@H]2[C@H](O)[C@@H](O[C@H]3O[C@H](CO)[C@@H](O)[C@H](N)[C@H]3O)[C@H](N)C[C@@H]2N)[C@H](N)C[C@@H]1O [TOBRAMYCIN] | 0.0009 µM |
| N=C(N)NCCC[C@H](N)C(=O)O (stereo in doubt; form 1) [ARGININE] | 60 µM |
| NC[C@H]1O[C@H](O[C@H]2[C@H](O)[C@@H](O)[C@H](N)C[C@@H]2N)[C@H](N)[C@@H](O)[C@@H]1O [NEAMINE] | 1 µM |
| GENTAMICIN | 0.01 µM |
| Cc1cc2nc3c(=O)[nH]c(=O)nc-3n(C[C@H](O)[C@H](O)[C@H](O)COP(=O)(O)O)c2cc1C [RIBOFLAVIN 5'-PHOSPHATE] | 0.5 µM |
| NC[C@@H]1O[C@H](O[C@H]2[C@@H](O)[C@H](O[C@@H]3[C@@H](O)[C@H](N)C[C@H](N)[C@H]3O[C@H]3O[C@H](CN)[C@@H](O)[C@H](O)[C@H]3N)O[C@@H]2CO)[C@H](N)[C@@H](O)[C@@H]1O (stereo in doubt; form 2) [FRAMYCETIN] | 0.1 µM |
| N=C(N)NCCC[C@H](N)C(=O)O (stereo in doubt; form 2) [ARGININE] | 1000 µM |
